Drawing on patent publication US6228872A, “Neurotrophic diamide and carbamate agents” (Bristol-Myers Squibb Company, priority 1999, dated 2001), this text covers inhibition and Ki for 29 molecules.

Read-outs that look alike come from different tables or passages of the source.

The target of the assay is FKBP12 (Homo sapiens, UniProt P62942). The assay can be described thus: FKBP12 Rotamase Inhibition Assay. In kind it is biochemical. The conditions noted are these: for inhibition at 10 µM: read-out: % inhib. at 10 μM; for Ki: apparent Ki, 4° C., substrate succinyl-Ala-Leu-Pro-Phe-p-nitroanilide. How it is done:
FKBP12 Rotamase Inhibition Assay
The rotamase activity of FKBP-12 was measured by an adaptation of the assay described by Kofron et al. (Biochemistry, 30, pp. 6127-6134 (1991)). The assay was carried out at 4° C. with 1 mg chymotrypsin/mL of assay with succinyl-Ala-Leu-Pro-Phe-p-nitroanilide as the substrate. Chymotrypsin rapidly hydrolyzes the peptide bond on the C-terminal side of the Phe of the trans form of the peptide and releases the chromogenic p-nitroaniline. The rate of the reaction is controlled by the rate of conversion of the cis form of the peptide to the trans-form, the reaction catalyzed by FKBP12. The apparent Ki values for inhibition of the rotamase activity were determined by measuring decreases in the first order rate constant of the reaction catalyzed by FKBP12 as a function of the concentrations of the compounds described herein. Ki is the concentration of the compound that causes 50 percent inhibition of rotamase activity which is indicative of neurite outgrowth activity.

Setting [1] is: Table 2, 1 μM (values marked *), read-out: % inhib. at 1 μM*.
Setting [2] is: Table 3, 1 μM, read-out: % rotamase inhib. at 1 μM.
Setting [3] is: Table 4, 1 μM, read-out: % rotamase inhib. at 1 μM.
Where [4] appears, read: Table 1, 1 μM (values marked *), read-out: % inhib. at 1 μM*.

Chain of FKBP12 (P62942 whole entry, species assumed): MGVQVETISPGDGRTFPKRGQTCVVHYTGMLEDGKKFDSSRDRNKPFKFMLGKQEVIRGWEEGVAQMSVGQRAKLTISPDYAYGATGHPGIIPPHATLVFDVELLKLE

On to `COc1cc(C(=O)C(=O)N2CCCCC2COC(=O)N(CCCc2ccccc2)CCCc2cccnc2)cc(OC)c1OC` (racemic) [Example 19, N-(3,4,5-Trimethoxyphenyl)oxalyl-(±)-piperidinylmethyl-[N',N'-3-(3-pyridyl)-propyl-3-phenylpropylamino]carbamate], for which the inhibition at 10 µM (Table 2) worked out at 11%. On to `COc1cc(C(F)(F)C(=O)N2CCCCC2COC(=O)N(CCCc2cccnc2)Cc2ccccc2)cc(OC)c1OC` (racemic) [Example 41, N-(3,4,5-Trimethoxyphenyl)-difluoroacetyl-(±)-piperidinylmethyl-[N',N'-3-(3-pyridyl)propyl-benzylamino]carbamate], for which the inhibition at 1 µM under setting [1] was 11%. Still for that read-out and setting: for `COc1cc(C(F)(F)C(=O)N2CCCCC2COC(=O)N(CCCc2cccnc2)CCc2ccccc2)cc(OC)c1OC` (racemic) [Example 42, N-(3,4,5-Trimethoxyphenyl)-difluoroacetyl-(±)-piperidinylmethyl-[N',N'-3-(3-pyridyl)propyl-2-phenylethylamino]carbamate] the value was 1%; for `COc1cc(C(F)(F)C(=O)N2CCCCC2COC(=O)N(CCCCc2ccccc2)CCCc2cccnc2)cc(OC)c1OC` (racemic) [Example 43], 0%. `CC(C)(C)C(=O)C(=O)N1CCC[C@H]1COC(=O)N(CCCc1ccccc1)CCCc1cccnc1` [Example 1, N-Trimethylpyruvyl-L-pyrrolidinylmethyl-[N',N'-3-(3-pyridyl)propyl-3-phenylpropylamino]carbamate]: the inhibition at 10 µM (Table 1) was 93%. With `CC(C)(C)C(=O)C(=O)N1CCC[C@H]1COC(=O)N(Cc1ccccc1)Cc1ccccc1` [Example 2, N-Trimethylpyruvyl-L-pyrrolidinylmethyl-[N',N'-dibenzylamino]carbamate], the inhibition at 10 µM (Table 1) was found to be 27%. For `CC(C)(C)C(=O)C(=O)N1CCC[C@H]1COC(=O)N(CCc1ccccc1)Cc1ccccc1` [Example 3, N-Trimethylpyruvyl-L-pyrrolidinylmethyl-[N',N'-2-phenylethyl-benzylamino]carbamate], the inhibition at 10 µM (Table 1) turned out to be 39%.

For the molecule `CC(C)(C)C(=O)C(=O)N1CCC[C@H]1COC(=O)NCc1cccnc1` [Example 4, N-Trimethylpyruvyl-L-pyrrolidinylmethyl-[N'-3-pyridylmethylamino]carbamate], the inhibition at 10 µM (Table 1) amounted to 12%. The same measure, in the same setting: for `CC(C)(C)C(=O)C(=O)N1CCC[C@H]1COC(=O)NCCc1ccccc1` [Example 5, N-Trimethylpyruvyl-L-pyrrolidinylmethyl-[N'-2-phenylethylamino]carbamate] the value was 0%; for `CC(C)(C)C(=O)C(=O)N1CCC[C@H]1COC(=O)NCCCc1ccccc1` [Example 6, N-Trimethylpyruvyl-L-pyrrolidinylmethyl-[N'-3-phenylpropylamino]carbamate], 32%. Turning to `COc1cc(C(=O)C(=O)N2CCC[C@H]2COC(=O)N(CCCc2ccccc2)CCCc2cccnc2)cc(OC)c1OC` [Example 7, N-(3,4,5-Trimethoxyphenyl)oxalyl-L-pyrrolidinylmethyl-[N',N'-3-(3-pyridyl)propyl-3-phenylpropylamino]carbamate], under “Table 2”, the inhibition at 10 µM amounted to 100% and the Ki came out at 447 nM.

`COc1cc(C(=O)C(=O)N2CCC[C@H]2COC(=O)NCc2cccnc2)cc(OC)c1OC` [Example 8, N-(3,4,5-Trimethoxyphenyl)oxalyl-L-pyrrolidinylmethyl-[N'-3-pyridylmethylamino]carbamate]: the inhibition at 10 µM (Table 1) was found to be 11%. Turning to `COc1cc(C(=O)C(=O)N2CCC[C@H]2COC(=O)NCCc2ccccc2)cc(OC)c1OC` [Example 9, N-(3,4,5-Trimethoxyphenyl)oxalyl-L-pyrrolidinylmethyl-[N'-2-phenylethylamino]carbamate], under “Table 1”, the inhibition at 10 µM came out at 11%. For `COc1cc(C(=O)C(=O)N2CCC[C@H]2COC(=O)N(CCCCc2ccccc2)CCCCc2cccnc2)cc(OC)c1OC` [Example 10, N-(3,4,5-Trimethoxyphenyl)oxalyl-L-pyrrolidinylmethyl-[N',N'-4-(3-pyridyl)butyl-4-phenylbutylamino]carbamate], the inhibition at 1 µM under setting [1] turned out to be 52%.

Consider `COc1cc(C(=O)C(=O)N2CCC[C@H]2COC(=O)N(CCCCc2ccccc2)CCCc2cccnc2)cc(OC)c1OC` [Example 11, N-(3,4,5-Trimethoxyphenyl)oxalyl-L-pyrrolidinylmethyl-[N',N'-3-(3-pyridyl)propyl-4-phenylbutylamino]carbamate], for which, under “Table 2”, the inhibition at 10 µM stood at 96% and the Ki worked out at 537 nM.

For `COc1cc(C(=O)C(=O)N2CCC[C@H]2COC(=O)N(CCCc2cccnc2)CCc2ccccc2)cc(OC)c1OC` [Example 12, N-(3,4,5-Trimethoxyphenyl)oxalyl-L-pyrrolidinylmethyl-[N',N'-3-(3-pyridyl)propyl-2-phenylethylamino]carbamate], where the note is “Table 2”, the inhibition at 10 µM was 80%. Same read-out and setting: the result for `COc1cc(C(=O)C(=O)N2CCC[C@H]2COC(=O)N(CCCc2cccnc2)Cc2ccccc2)cc(OC)c1OC` [Example 13, N-(3,4,5-Trimethoxyphenyl)oxalyl-L-pyrrolidinylmethyl-[N',N'-3-(3-pyridyl)propyl-benzylamino]carbamate] reads 79%.

Consider `COc1cc(C(=O)C(=O)N2CCC[C@H]2COC(=O)N(CCCCc2cccnc2)CCCc2ccccc2)cc(OC)c1OC` [Example 14, N-(3,4,5-Trimetboxyphenyl)oxalyl-L-pyrrolidinylmethyl-[N',N'-4-(3-pyridyl)butyl-3-phenylpropylamino]carbamate], for which, under setting [1], the inhibition at 1 µM was found to be 54%. With `COc1cc(C(=O)C(=O)N2CCC[C@H]2COC(=O)N(CCCCc2cccnc2)CCc2ccccc2)cc(OC)c1OC` [Example 15, N-(3,4,5-Trimethoxyphenyl)oxalyl-L-pyrrolidinylmethyl-[N',N'-4-(3-pyridyl)butyl-2-phenylethylamino]carbamate], for the setting “Table 2”, the inhibition at 10 µM was 82%. For the molecule `COc1cc(C(=O)C(=O)N2CCC[C@H]2COC(=O)N(CCCCc2cccnc2)Cc2ccccc2)cc(OC)c1OC` [Example 16, N-(3,4,5-Trimethoxyphenyl)oxalyl-L-pyrrolidinylmethyl-[N',N'-4-(^3-pyridyl)butyl-benzylamino]carbamate], the inhibition at 1 µM under setting [1] was 18%. For the molecule `COc1cccc(CCCN(CCCc2cccnc2)C(=O)OC[C@@H]2CCCN2C(=O)C(=O)c2cc(OC)c(OC)c(OC)c2)c1` [Example 17, N-(3,4,5-Trimethoxyphenyl)oxalyl-L-pyrrolidinylmethyl-[N',N'-3-(3-pyridyl)propyl-3-(3-methoxyphenyl)propylamino]carbamate], under setting [2], the inhibition at 1 µM worked out at 75%.

In the case of `COc1cc(CCCN(CCCc2cccnc2)C(=O)OC[C@@H]2CCCN2C(=O)C(=O)c2cc(OC)c(OC)c(OC)c2)cc(OC)c1OC` [Example 18, N-(3,4,5-Trimethoxyphenyl)oxalyl-L-pyrrolidinylmethyl-[N',N'-3-(3-pyridyl)propyl-3-(3,4,5-trimethoxyphenyl)propylamino]carbamate], the inhibition at 1 µM under setting [2] worked out at 68%.

Turning to `COc1cc(C(=O)C(=O)N2CCCC[C@H]2CCC(=O)N(CCCc2ccccc2)CCCc2cccnc2)cc(OC)c1OC` [Example 20], under setting [3], the inhibition at 1 µM came to 0%. Still for that read-out and setting: for `COc1cc(C(=O)C(=O)N2CCC[C@H]2CCC(=O)N(CCCc2ccccc2)CCCc2cccnc2)cc(OC)c1OC` [Example 21, N,N-(3-Phenylpropyl)-3-(3-pyridyl)propyl-2-[(S)-N'-(3,4,5-trimethoxyphenyl)oxalyl-2-pyrrolidinyl]propionamide] the value was 1%. `COc1cc(C(F)(F)C(=O)N2CCC[C@H]2COC(=O)N(CCCCc2ccccc2)CCCCc2cccnc2)cc(OC)c1OC` [Example 22, N-(3,4,5-Trimethoxyphenyl)-difluoroacetyl-L-pyrrolidinylmethyl-[N',N'-4-(3-pyridyl)butyl-4-phenylbutylamino]carbamate]: under setting [1], the inhibition at 1 µM worked out at 83%. Where the note is “Table 2”, the Ki was 271 nM. Turning to `COc1cc(C(F)(F)C(=O)N2CCC[C@H]2COC(=O)N(CCCc2ccccc2)CCCc2cccnc2)cc(OC)c1OC` [Example 23, N-(3,4,5-Trimethoxyphenyl)-difluoroacetyl-L-pyrrolidinylmethyl-[N',N'-3-(3-pyridyl)propyl-3-phenylpropylamino]carbamate], where the note is “Table 2”, the inhibition at 10 µM came out at 98% and the Ki was 113 nM. Regarding `COc1cc(C(F)(F)C(=O)N2CCC[C@H]2COC(=O)N(Cc2ccccc2)Cc2ccccc2)cc(OC)c1OC` [Example 24, N-(3,4,5-Trimethoxyphenyl)-difluoroacetyl-L-pyrrolidinylmethyl-[N',N'-dibenzylamino]carbamate], under setting [4], the inhibition at 1 µM is 34%.

In the case of `COc1cc(C(F)(F)C(=O)N2CCC[C@H]2COC(=O)N(CCc2ccccc2)CCc2c[nH]c3ccccc23)cc(OC)c1OC` [Example 25, N-(3,4,5-Trimethoxyphenyl)-difluoroacetyl-L-pyrrolidinylmethyi-[N',N'-2-(3-indolyl)ethyl-2-phenylethylamino]carbamate], the inhibition at 1 µM under setting [4] was 11%. Regarding `COc1cc(C(F)(F)C(=O)N2CCC[C@H]2COC(=O)N(CCCCc2ccccc2)CCCc2cccnc2)cc(OC)c1OC` [Example 26, N-(3,4,5-Trimethoxyphenyl)-difluoroacetyl-L-pyrrolidinylmethyl-[N',N'-3-(3-pyridyl)propyl-4-phenylbutylamino]carbamate], under “Table 2”, the inhibition at 10 µM stood at 99% and the Ki is 158 nM.
